Results: patent publication US12077503B2, “Substituted cyclic amides and their use as herbicides” (FMC CORPORATION, priority 2015, dated 2024)

Tests used:
Format in all cases: in vivo
[1] = test system: ivy-leaved morning glory (Ipomoea hederacea); assay: Test G Pre-Emergence Protocol; settings: Ipomoea, pre-emergence, 312 h, evaluated after 13 days; for pest or weed control at 15.625 g/ha: 15.625 g ai/ha, read-out: Morning-glory, Ivy-leaved damage rating (100=total damage to plant; 0=no damage to plant); for pest or weed control at 62.5 g/ha: 62.5 g ai/ha, 100=total damage to plant, 0=no damage to plant, read-out: plant damage rating, Morningglory, Ivy-leaved; for pest or weed control at 250 g/ha: 250 g ai/ha, read-out: Morningglory, Ivy-leaved damage rating (100=total damage to plant; 0=no damage to plant)
How it was run: (§1)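 Scores are visual damage ratings from 0 (no damage) to 100 (total plant kill), taken 13 days after treatment. Compound was sprayed one day post-sowing at 15.625, 62.5 or 250 g/ha in 50:50 acetone/water with 0.5% Tween 20.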

[2] = test system: redroot pigweed (Amaranthus retroflexus); assay: Test G Pre-Emergence Protocol; settings: Amaranthus retroflexus, pre-emergence, 312 h, evaluated after 13 days; for pest or weed control at 15.625 g/ha: 15.625 g ai/ha; for pest or weed control at 15.625 g/ha / pest or weed control at 250 g/ha: read-out: Pigweed, Redroot damage rating (100=total damage to plant; 0=no damage to plant); for pest or weed control at 62.5 g/ha: 62.5 g ai/ha, 100=total damage to plant, 0=no damage to plant, read-out: plant damage rating, Pigweed, Redroot; for pest or weed control at 250 g/ha: 250 g ai/ha
How it was run: as §1

[3] = test system: velvetleaf (Abutilon theophrasti); assay: Test G Pre-Emergence Protocol; settings: Abutilon theophrasti, pre-emergence, 312 h, evaluated after 13 days; for pest or weed control at 15.625 g/ha: 15.625 g ai/ha; for pest or weed control at 15.625 g/ha / pest or weed control at 250 g/ha: read-out: Velvetleaf damage rating (100=total damage to plant; 0=no damage to plant); for pest or weed control at 62.5 g/ha: 62.5 g ai/ha, 100=total damage to plant, 0=no damage to plant, read-out: plant damage rating, Velvetleaf; for pest or weed control at 250 g/ha: 250 g ai/ha
How it was run: as §1

[4] = test system: barnyardgrass (Echinochloa crus-galli); assay: Test G Pre-Emergence Protocol; settings: Echinochloa crus-galli, pre-emergence, 312 h, evaluated after 13 days; for pest or weed control at 15.625 g/ha: 15.625 g ai/ha, read-out: Barnyard grass damage rating (100=total damage to plant; 0=no damage to plant); for pest or weed control at 62.5 g/ha: 62.5 g ai/ha, 100=total damage to plant, 0=no damage to plant, read-out: plant damage rating, Barnyardgrass; for pest or weed control at 250 g/ha: 250 g ai/ha, read-out: Barnyardgrass damage rating (100=total damage to plant; 0=no damage to plant)
How it was run: as §1

corn (Zea mays) [5] = assay: Test G Pre-Emergence Protocol; settings: Zea mays, pre-emergence, 312 h, evaluated after 13 days; for plant injury at 15.625 g/ha: 15.625 g ai/ha; for plant injury at 15.625 g/ha / plant injury at 250 g/ha: read-out: Corn damage rating (100=total damage to plant; 0=no damage to plant); for plant injury at 62.5 g/ha: 62.5 g ai/ha, 100=total damage to plant, 0=no damage to plant, read-out: plant damage rating, Corn; for plant injury at 250 g/ha: 250 g ai/ha
How it was run: as §1

[6] = test system: giant foxtail (Setaria faberi); assay: Test G Pre-Emergence Protocol; settings: Setaria faberi, pre-emergence, 312 h, evaluated after 13 days; for pest or weed control at 15.625 g/ha: 15.625 g ai/ha; for pest or weed control at 15.625 g/ha / pest or weed control at 250 g/ha: read-out: Foxtail, Giant damage rating (100=total damage to plant; 0=no damage to plant); for pest or weed control at 62.5 g/ha: 62.5 g ai/ha, 100=total damage to plant, 0=no damage to plant, read-out: plant damage rating, Foxtail, Giant; for pest or weed control at 250 g/ha: 250 g ai/ha
How it was run: as §1

[7] = test system: ivy-leaved morning glory (Ipomoea hederacea); assay: Test G Post-Emergence Protocol; settings: Ipomoea, post-emergence, 312 h; for pest or weed control at 15.625 g/ha: 15.625 g ai/ha, evaluated after 13 days (100=total damage to plant; 0=no damage to plant), read-out: Morningglory, Ivy-leaved damage rating; for pest or weed control at 62.5 g/ha: 62.5 g ai/ha, read-out: Morningglory, Ivy-leaved damage rating (100=total damage to plant; 0=no damage to plant); for pest or weed control at 62.5 g/ha / pest or weed control at 250 g/ha: evaluated after 13 days; for pest or weed control at 250 g/ha: 250 g ai/ha, read-out: damage to plant, Morningglory, Ivy-leaved (100=total damage to plant; 0=no damage to plant)
How it was run: (§2)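 Damage was rated 13 days after treatment from 0 (none) to 100 (plant killed). Compound was applied as a spray at 15.625, 62.5 or 250 g/ha in 50:50 acetone/water containing 0.5% Tween 20, onto 8-day-old potted plants kept in a glasshouse (24/16 °C, 14 h light, 65% humidity).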

[8] = test system: redroot pigweed (Amaranthus retroflexus); assay: Test G Post-Emergence Protocol; settings: Amaranthus retroflexus, post-emergence, 312 h; for pest or weed control at 15.625 g/ha: 15.625 g ai/ha, evaluated after 13 days (100=total damage to plant; 0=no damage to plant), read-out: Pigweed, Redroot damage rating; for pest or weed control at 62.5 g/ha: 62.5 g ai/ha, read-out: Pigweed, Redroot damage rating (100=total damage to plant; 0=no damage to plant); for pest or weed control at 62.5 g/ha / pest or weed control at 250 g/ha: evaluated after 13 days; for pest or weed control at 250 g/ha: 250 g ai/ha, read-out: damage to plant, Pigweed, Redroot (100=total damage to plant; 0=no damage to plant)
How it was run: as §2

[9] = test system: velvetleaf (Abutilon theophrasti); assay: Test G Post-Emergence Protocol; settings: Abutilon theophrasti, post-emergence, 312 h; for pest or weed control at 15.625 g/ha: 15.625 g ai/ha, evaluated after 13 days (100=total damage to plant; 0=no damage to plant), read-out: Velvetleaf damage rating; for pest or weed control at 62.5 g/ha: 62.5 g ai/ha, read-out: Velvetleaf damage rating (100=total damage to plant; 0=no damage to plant); for pest or weed control at 62.5 g/ha / pest or weed control at 250 g/ha: evaluated after 13 days; for pest or weed control at 250 g/ha: 250 g ai/ha, read-out: damage to plant, Velvetleaf (100=total damage to plant; 0=no damage to plant)
How it was run: as §2

[10] = test system: barnyardgrass (Echinochloa crus-galli); assay: Test G Post-Emergence Protocol; settings: Echinochloa crus-galli, post-emergence, 312 h; for pest or weed control at 15.625 g/ha: 15.625 g ai/ha, evaluated after 13 days (100=total damage to plant; 0=no damage to plant), read-out: Barnyardgrass damage rating; for pest or weed control at 62.5 g/ha: 62.5 g ai/ha, read-out: Barnyardgrass damage rating (100=total damage to plant; 0=no damage to plant); for pest or weed control at 62.5 g/ha / pest or weed control at 250 g/ha: evaluated after 13 days; for pest or weed control at 250 g/ha: 250 g ai/ha, read-out: damage to plant, Barnyardgrass (100=total damage to plant; 0=no damage to plant)
How it was run: as §2

corn (Zea mays) [11] = assay: Test G Post-Emergence Protocol; settings: Zea mays, post-emergence, 312 h; for plant injury at 15.625 g/ha: 15.625 g ai/ha, evaluated after 13 days (100=total damage to plant; 0=no damage to plant), read-out: Corn damage rating; for plant injury at 62.5 g/ha: 62.5 g ai/ha, read-out: Corn damage rating (100=total damage to plant; 0=no damage to plant); for plant injury at 62.5 g/ha / plant injury at 250 g/ha: evaluated after 13 days; for plant injury at 250 g/ha: 250 g ai/ha, read-out: damage to plant, Corn (100=total damage to plant; 0=no damage to plant)
How it was run: as §2

[12] = test system: giant foxtail (Setaria faberi); assay: Test G Post-Emergence Protocol; settings: Setaria faberi, post-emergence, 312 h; for pest or weed control at 15.625 g/ha: 15.625 g ai/ha, evaluated after 13 days (100=total damage to plant; 0=no damage to plant), read-out: Foxtail, Giant damage rating; for pest or weed control at 62.5 g/ha: 62.5 g ai/ha, read-out: Foxtail, Giant damage rating (100=total damage to plant; 0=no damage to plant); for pest or weed control at 62.5 g/ha / pest or weed control at 250 g/ha: evaluated after 13 days; for pest or weed control at 250 g/ha: 250 g ai/ha, read-out: damage to plant, Foxtail, Giant (100=total damage to plant; 0=no damage to plant)
How it was run: as §2

Row | SMILES | pest or weed control at 15.625 g/ha [1] | pest or weed control at 62.5 g/ha [1] | pest or weed control at 250 g/ha [1] | pest or weed control at 15.625 g/ha [2] | pest or weed control at 62.5 g/ha [2] | pest or weed control at 250 g/ha [2] | pest or weed control at 15.625 g/ha [3] | pest or weed control at 62.5 g/ha [3] | pest or weed control at 250 g/ha [3] | pest or weed control at 15.625 g/ha [4] | pest or weed control at 62.5 g/ha [4] | pest or weed control at 250 g/ha [4] | plant injury at 15.625 g/ha (corn (Zea mays) [5]) | plant injury at 62.5 g/ha (corn (Zea mays) [5]) | plant injury at 250 g/ha (corn (Zea mays) [5]) | pest or weed control at 15.625 g/ha [6] | pest or weed control at 62.5 g/ha [6] | pest or weed control at 250 g/ha [6] | pest or weed control at 15.625 g/ha [7] | pest or weed control at 62.5 g/ha [7] | other results
1 | CN1C[C@H](c2ccc(C(C)(C)C#N)cc2)[C@@H](C(=O)Nc2ccccc2F)C1=O (racemic) [Compound 1408] | 0% | 0% | 0% | 0% | 0% | 10% | 0% | 0% | 0% | 0% | 0% | 20% | 0% | 0% | 10% | 0% | 20% | 70% | 0% | 0% | pest or weed control at 250 g/ha [7]: 20%; pest or weed control at 15.625 g/ha [8]: 0%; pest or weed control at 62.5 g/ha [8]: 0%; pest or weed control at 250 g/ha [8]: 0%; pest or weed control at 15.625 g/ha [9]: 0%; pest or weed control at 62.5 g/ha [9]: 0%; pest or weed control at 250 g/ha [9]: 10%; pest or weed control at 15.625 g/ha [10]: 0%; pest or weed control at 62.5 g/ha [10]: 0%; pest or weed control at 250 g/ha [10]: 40%; plant injury at 15.625 g/ha (corn (Zea mays) [11]): 0%; plant injury at 62.5 g/ha (corn (Zea mays) [11]): 0%; plant injury at 250 g/ha (corn (Zea mays) [11]): 20%; pest or weed control at 15.625 g/ha [12]: 0%; pest or weed control at 62.5 g/ha [12]: 0%; pest or weed control at 250 g/ha [12]: 60%
2 | CN1C[C@H](c2cccc3c2OC(F)(F)O3)[C@@H](C(=O)Nc2ccccc2F)C1=O (racemic) [Compound 1465] | 0% | 0% | 0% | 0% | 0% | 0% | 0% | 0% | 0% | 0% | 20% | 70% | 0% | 0% | 0% | 30% | 70% | 90% | 0% | 0% | pest or weed control at 250 g/ha [7]: 20%; pest or weed control at 15.625 g/ha [8]: 10%; pest or weed control at 62.5 g/ha [8]: 0%; pest or weed control at 250 g/ha [8]: 0%; pest or weed control at 15.625 g/ha [9]: 10%; pest or weed control at 62.5 g/ha [9]: 0%; pest or weed control at 250 g/ha [9]: 10%; pest or weed control at 15.625 g/ha [10]: 0%; pest or weed control at 62.5 g/ha [10]: 10%; pest or weed control at 250 g/ha [10]: 20%; plant injury at 15.625 g/ha (corn (Zea mays) [11]): 10%; plant injury at 62.5 g/ha (corn (Zea mays) [11]): 10%; plant injury at 250 g/ha (corn (Zea mays) [11]): 10%; pest or weed control at 15.625 g/ha [12]: 0%; pest or weed control at 62.5 g/ha [12]: 60%; pest or weed control at 250 g/ha [12]: 70%
3 | CN1C[C@@H](c2ccc(C(F)(F)F)cc2)[C@H](C(=O)Nc2cccc3c2CCC3)C1=O (racemic) [Compound 1624] | 0% | 0% | 0% | 0% | 0% | 20% | 0% | 0% | 10% | 0% | 0% | 80% | 0% | 0% | 0% | 20% | 60% | 80% | 10% | 20% | pest or weed control at 250 g/ha [7]: 20%; pest or weed control at 15.625 g/ha [8]: 0%; pest or weed control at 62.5 g/ha [8]: 30%; pest or weed control at 250 g/ha [8]: 20%; pest or weed control at 15.625 g/ha [9]: 0%; pest or weed control at 62.5 g/ha [9]: 10%; pest or weed control at 250 g/ha [9]: 10%; pest or weed control at 15.625 g/ha [10]: 0%; pest or weed control at 62.5 g/ha [10]: 20%; pest or weed control at 250 g/ha [10]: 70%; plant injury at 15.625 g/ha (corn (Zea mays) [11]): 0%; plant injury at 62.5 g/ha (corn (Zea mays) [11]): 10%; plant injury at 250 g/ha (corn (Zea mays) [11]): 10%; pest or weed control at 15.625 g/ha [12]: 10%; pest or weed control at 62.5 g/ha [12]: 80%; pest or weed control at 250 g/ha [12]: 80%
